From the supplement of paper PMC10307832

Key:
Assay in all cases: relative viability (nuclei count vs DMSO), 5 days (fraction); higher = more cells survive
AZ505 + Palbociclib = compound: C1CCC(CC1)N(CCNCCC2=C3C(=C(C=C2)O)NC(=O)CO3)C(=O)CCNCCC4=CC(=C(C=C4)Cl)Cl [AZ505] + CC(=O)c1c(C)c2cnc(Nc3ccc(N4CCNCC4)cn3)nc2n(C2CCCC2)c1=O [Palbociclib] (partner 0.5 µM)
In short: (§1)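 Dosing by pin tool came one day after lung cancer cell lines were seeded in 1536-well plates, using either one drug or a fixed anchor-drug dose plus five library-drug doses (not always all listed) in √10 steps. After 5 days, nuclei were counted on 4× images. Relative viability is treated-well nuclei count divided by vehicle-well nuclei count, and values are medians of duplicate plates.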

AZ505 + Lapatinib = compound: C1CCC(CC1)N(CCNCCC2=C3C(=C(C=C2)O)NC(=O)CO3)C(=O)CCNCCC4=CC(=C(C=C4)Cl)Cl [AZ505] + CS(=O)(=O)CCNCc1ccc(-c2ccc3ncnc(Nc4ccc(OCc5cccc(F)c5)c(Cl)c4)c3c2)o1 [Lapatinib] (partner 2 µM)
In short: as §1

Dactolisib + Luminespib = compound: Cn1c(=O)n(-c2ccc(C(C)(C)C#N)cc2)c2c3cc(-c4cnc5ccccc5c4)ccc3ncc21 [Dactolisib] + CCNC(=O)c1noc(-c2cc(C(C)C)c(O)cc2O)c1-c1ccc(CN2CCOCC2)cc1 [Luminespib] (partner 0.01 µM)
In short: as §1

Dactolisib + Tozasertib = compound: Cn1c(=O)n(-c2ccc(C(C)(C)C#N)cc2)c2c3cc(-c4cnc5ccccc5c4)ccc3ncc21 [Dactolisib] + Cc1cc(Nc2cc(N3CCN(C)CC3)nc(Sc3ccc(NC(=O)C4CC4)cc3)n2)n[nH]1 [Tozasertib] (partner 0.1 µM)
In short: as §1

Q: Which relative viability (AZ505 + Palbociclib; first compound 0.08 µM) does the source give for UMC-11 here?
A: Its relative viability is 0.303.

Q: What about the relative viability (AZ505 + Palbociclib; first compound 0.253 µM) of the same cell line?
A: Its relative viability is 0.33.

Q: And the relative viability (AZ505 + Palbociclib; first compound 0.8 µM)?
A: Its relative viability is 0.332.

Q: What about the relative viability (AZ505 + Palbociclib; first compound 2.53 µM) of the same cell line?
A: The relative viability was 0.337.

Q: What about the relative viability (AZ505 + Palbociclib; first compound 8 µM) of the same cell line?
A: The relative viability was 0.321.

Q: What about the relative viability (AZ505 + Lapatinib; first compound 0.08 µM) of the same cell line?
A: The relative viability was 0.86.

Q: What about the relative viability (AZ505 + Lapatinib; first compound 0.253 µM) of the same cell line?
A: The relative viability was 0.943.

Q: What about the relative viability (AZ505 + Lapatinib; first compound 0.8 µM) of the same cell line?
A: The relative viability was 0.901.

Q: What about the relative viability (AZ505 + Lapatinib; first compound 2.53 µM) of the same cell line?
A: The relative viability was 1.11.

Q: And the relative viability (AZ505 + Lapatinib; first compound 8 µM)?
A: Its relative viability is 0.976.

Q: What about the relative viability (Dactolisib + Luminespib; first compound 0.002 µM) of the same cell line?
A: Its relative viability is 1.1.

Q: And the relative viability (Dactolisib + Luminespib; first compound 0.006325 µM)?
A: Its relative viability is 0.781.

Q: What about the relative viability (Dactolisib + Luminespib; first compound 0.02 µM) of the same cell line?
A: Its relative viability is 0.737.

Q: And the relative viability (Dactolisib + Luminespib; first compound 0.06325 µM)?
A: The relative viability was 0.261.

Q: What about the relative viability (Dactolisib + Luminespib; first compound 0.2 µM) of the same cell line?
A: Its relative viability is 0.224.

Q: And the relative viability (Dactolisib + Tozasertib; first compound 0.002 µM)?
A: Its relative viability is 0.214.

Q: What about the relative viability (Dactolisib + Tozasertib; first compound 0.006325 µM) of the same cell line?
A: The relative viability was 0.198.

Q: And the relative viability (Dactolisib + Tozasertib; first compound 0.02 µM)?
A: The relative viability was 0.216.

Q: What about the relative viability (Dactolisib + Tozasertib; first compound 0.06325 µM) of the same cell line?
A: The relative viability was 0.221.

Q: What about the relative viability (Dactolisib + Tozasertib; first compound 0.2 µM) of the same cell line?
A: The relative viability was 0.23.
